How the values were obtained:
ALOMY = assay: Pre-emergence herbicidal action; format: in vivo, Alopecurus myosuroides; settings: 80 g/ha, scored after 3 weeks
Summary of the method: (§1)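 Greenhouse pre-emergence pot test in sandy loam; aqueous WP/EC spray at 600 to 800 l/ha with 0.2% wetting agent applied after sowing. Values are visual % damage at 3 weeks, where 0% equals control plants and 100% means plants died.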

AMARE [1] = assay: Pre-emergence herbicidal action; format: in vivo, Amaranthus retroflexus; settings: scored after 3 weeks
Summary of the method: (§2)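 Weed and crop seeds were sown in sandy loam, and WP or EC formulations were sprayed onto the covering soil at 600 to 800 l/ha water with 0.2% wetting agent. After 3 weeks in a greenhouse, damage was scored visually against untreated controls as percent activity (100% = plants dead).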

AVEFA [2] = assay: Pre-emergence herbicidal action; format: in vivo, Avena fatua; settings: 80 g/ha, scored after 3 weeks
Summary of the method: as §1

ECHCG [3] = assay: Pre-emergence herbicidal action; format: in vivo, Echinochloa crus-galli; settings: scored after 3 weeks
Summary of the method: as §2

MATIN [4] = assay: Pre-emergence herbicidal action; format: in vivo, Matricaria inodora; settings: scored after 3 weeks
Summary of the method: as §1

PHBPU [5] = assay: Pre-emergence herbicidal action; format: in vivo, Pharbitis purpurea; settings: 80 g/ha, scored after 3 weeks
Description: (§3) Seeds of monocotyledonous and dicotyledonous weed plants and crop plants are laid out in sandy loam soil in wood-fibre pots and covered with soil. The compounds of the invention, formulated in the form of wettable powders (WP) or as emulsion concentrates (EC), are then applied to the surface of the covering soil in the form of an aqueous suspension or emulsion at a water application rate equivalent to 600 to 800 l/ha, with addition of 0.2% wetting agent. After the treatment, the pots are placed in a greenhouse and kept under good growth conditions for the trial plants. The damage to the test plants is scored visually after a test period of 3 weeks by comparison with untreated controls (herbicidal activity in percent (%): 100% activity=the plants have died, 0% activity=like control plants). […] The tables below illustrate, in an illustrative manner, the post-emergence herbicidal action of the compounds of the invention, the herbicidal activity being stated in percent.

POLCO [6] = assay: Pre-emergence herbicidal action; format: in vivo, Polygonum convolvulus; settings: 80 g/ha, scored after 3 weeks
Summary of the method: as §1

SETVI [7] = assay: Pre-emergence herbicidal action; format: in vivo, Setaria viridis; settings: scored after 3 weeks
Summary of the method: as §1

VIOTR [8] = assay: Pre-emergence herbicidal action; format: in vivo, Viola tricolor; settings: scored after 3 weeks
Summary of the method: as §2

ZEAMX [9] = assay: Pre-emergence damage to crop plants; format: in vivo, Zea mays; settings: 320 g a.i./ha, comparative experiment
Summary of the method: as §1

ORYZA [10] = assay: Pre-emergence damage to crop plants; format: in vivo, Oryza sativa; settings: 80 g a.i./ha, comparative experiment
Description: as §3, with “percent. In the experiments that follow, the herbicidal action of the compounds of the invention and that of the corresponding known racemic compounds closest from WO2012126932 and WO2018202535 were compared under the above-specified conditions by the pre-emergence and post-emergence method. The example numbers given in the tables relate to the compounds disclosed in the respective documents.” for “percent.”

TRZAS [11] = assay: Pre-emergence damage to crop plants; format: in vivo, Triticum aestiva; settings: 80 g a.i./ha, comparative experiment
Description: as §3, with “percent. In the experiments that follow, the herbicidal action of the compounds of the invention and that of the corresponding known racemic compounds closest from WO2012126932 and WO2018202535 were compared under the above-specified conditions by the pre-emergence and post-emergence method. The example numbers given in the tables relate to the compounds disclosed in the respective documents.” for “percent.”

AMARE [12] = assay: Post-emergence herbicidal action; format: in vivo, Amaranthus retroflexus; settings: assessed after about 3 weeks
Summary of the method: (§4)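 Greenhouse plants in sandy loam treated at the one-leaf stage, 2–3 weeks after sowing, by spraying WP or EC formulations as aqueous suspension/emulsion at 600–800 l/ha with 0.2% wetting agent. Visual assessment after about 3 weeks versus untreated controls, as percent action (100% = plants dead, 0% = like control).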

AVEFA [13] = assay: Post-emergence herbicidal action; format: in vivo, Avena fatua; settings: 20 g/ha, assessed after about 3 weeks
Method: (§5) Seeds of monocotyledonous and dicotyledonous weed and crop plants are laid out in sandy loam soil in wood-fibre pots, covered with soil and cultivated in a greenhouse under good growth conditions. 2 to 3 weeks after sowing, the test plants are treated at the one-leaf stage. The compounds of the invention, formulated in the form of wettable powders (WP) or as emulsion concentrates (EC), are then sprayed onto the green parts of the plants in the form of an aqueous suspension or emulsion at a water application rate equating to 600 to 800 l/ha, with addition of 0.2% wetting agent. After the test plants have been left to stand in the greenhouse under optimal growth conditions for about 3 weeks, the action of the preparations is assessed visually in comparison to untreated controls (herbicidal action in percent (%): 100% activity=the plants have died, 0% activity=like control plants). […] The tables below illustrate, in an illustrative manner, the post-emergence herbicidal action of the compounds of the invention, the herbicidal activity being stated in percent.

ECHCG [14] = assay: Post-emergence herbicidal action; format: in vivo, Echinochloa crus-galli; settings: assessed after about 3 weeks
Summary of the method: (§6)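 Seeds are sown in sandy loam and grown under greenhouse conditions until the one-leaf stage. Formulated compounds (WP or EC) are then sprayed onto green parts at a water rate of 600 to 800 l/ha with 0.2% wetting agent. About 3 weeks later, activity is rated visually as percent relative to untreated plants.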

MATIN [15] = assay: Post-emergence herbicidal action; format: in vivo, Matricaria inodora; settings: assessed after about 3 weeks
Summary of the method: as §4

PHBPU [16] = assay: Post-emergence herbicidal action; format: in vivo, Pharbitis purpurea; settings: assessed after about 3 weeks
Method: as §5

POLCO [17] = assay: Post-emergence herbicidal action; format: in vivo, Polygonum convolvulus; settings: 20 g/ha, assessed after about 3 weeks
Method: as §5

SETVI [18] = assay: Post-emergence herbicidal action; format: in vivo, Setaria viridis; settings: assessed after about 3 weeks
Summary of the method: as §6

VERPE = assay: Post-emergence herbicidal action; format: in vivo, Veronica persica; settings: 20 g/ha, assessed after about 3 weeks
Summary of the method: as §6

VIOTR [19] = assay: Post-emergence herbicidal action; format: in vivo, Viola tricolor; settings: assessed after about 3 weeks
Method: as §5, with “percent. In the experiments that follow, the herbicidal action of the compounds of the invention and that of the corresponding known racemic compounds closest from WO2012126932 and WO2018202535 were compared under the above-specified conditions by the pre-emergence and post-emergence method. The example numbers given in the tables relate to the compounds disclosed in the respective documents.” for “percent.”

ORYZA [20] = assay: Post-emergence damage to crop plants; format: in vivo, Oryza sativa; settings: 80 g a.i./ha, comparative experiment
Method: as §5, with “percent. In the experiments that follow, the herbicidal action of the compounds of the invention and that of the corresponding known racemic compounds closest from WO2012126932 and WO2018202535 were compared under the above-specified conditions by the pre-emergence and post-emergence method. The example numbers given in the tables relate to the compounds disclosed in the respective documents.” for “percent.”

ZEAMX [21] = assay: Post-emergence damage to crop plants; format: in vivo, Zea mays; settings: 80 g a.i./ha, comparative experiment
Method: as §5, with “percent. In the experiments that follow, the herbicidal action of the compounds of the invention and that of the corresponding known racemic compounds closest from WO2012126932 and WO2018202535 were compared under the above-specified conditions by the pre-emergence and post-emergence method. The example numbers given in the tables relate to the compounds disclosed in the respective documents.” for “percent.”

TRZAS [22] = assay: Post-emergence damage to crop plants; format: in vivo, Triticum aestiva; settings: 80 g a.i./ha, comparative experiment
Summary of the method: as §6

C[S+]([O-])c1c(C(F)(F)F)ccc(C(=O)Nc2nnco2)c1Cl (stereo in doubt) [Example I-1, 2-chloro-N-(1,3,4-oxadiazol-2-yl)-3-[(S)-methylsulfinyl]-4-(trifluoromethyl)benzamide]
Pre-emergence action against ALOMY (ALOMY): 80% | Pre-emergence action against AMARE (AMARE [1]; 20 g/ha): 100% | Pre-emergence action against AMARE (AMARE [1]; 80 g/ha): 100% | Pre-emergence action against AVEFA (AVEFA [2]): 80% | Pre-emergence action against ECHCG (ECHCG [3]; 5 g/ha): 90% | Pre-emergence action against ECHCG (ECHCG [3]; 20 g/ha): 100% | Pre-emergence action against ECHCG (ECHCG [3]; 80 g/ha): 100% | Pre-emergence action against MATIN (MATIN [4]; 20 g/ha): 100% | Pre-emergence action against MATIN (MATIN [4]; 80 g/ha): 100% | Pre-emergence action against PHBPU (PHBPU [5]): 100% | Pre-emergence action against POLCO (POLCO [6]): 80% | Pre-emergence action against SETVI (SETVI [7]; 20 g/ha): 80% | Pre-emergence action against SETVI (SETVI [7]; 80 g/ha): 100% | Pre-emergence action against VIOTR (VIOTR [8]; 20 g/ha): 100% | Pre-emergence action against VIOTR (VIOTR [8]; 80 g/ha): 100% | Damage to ZEAMX (ZEAMX [9]): 0% | Damage to ORYZA (ORYZA [10]): 80% | Damage to TRZAS (TRZAS [11]): 30% | Post-emergence action against AMARE (AMARE [12]; 1.25 g/ha): 100% | Post-emergence action against AMARE (AMARE [12]; 5 g/ha): 100% | Post-emergence action against AMARE (AMARE [12]; 20 g/ha): 100% | Post-emergence action against AVEFA (AVEFA [13]): 80% | Post-emergence action against ECHCG (ECHCG [14]; 5 g/ha): 100% | Post-emergence action against ECHCG (ECHCG [14]; 20 g/ha): 100% | Post-emergence action against MATIN (MATIN [15]; 5 g/ha): 80% | Post-emergence action against MATIN (MATIN [15]; 20 g/ha): 90% | Post-emergence action against PHBPU (PHBPU [16]; 5 g/ha): 100% | Post-emergence action against PHBPU (PHBPU [16]; 20 g/ha): 100% | Post-emergence action against POLCO (POLCO [17]): 80% | Post-emergence action against SETVI (SETVI [18]; 5 g/ha): 80% | Post-emergence action against SETVI (SETVI [18]; 20 g/ha): 100% | Post-emergence action against VERPE (VERPE): 90% | Post-emergence action against VIOTR (VIOTR [19]; 1.25 g/ha): 90% | Post-emergence action against VIOTR (VIOTR [19]; 5 g/ha): 100% | Post-emergence action against VIOTR (VIOTR [19]; 20 g/ha): 100% | Damage to ORYZA (ORYZA [20]): 70% | Damage to ZEAMX (ZEAMX [21]): 0% | Damage to TRZAS (TRZAS [22]): 60%
